Data taken from patent publication US6518243B1, “Desleucyl glycopeptide antibiotics and methods of making same” (Trustees of Princeton University, priority 1999, dated 2003).

Columns and labels:
[1] = system: E. faecalis (CL 4877); assay: Zone of inhibition screen, 96 well agar array format; type: cell-based; set-up: scale not given here
In short: (§1)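 Compounds are screened one by one for antibacterial effect in an agar array of 96 wells, using the same set of strains throughout.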

[2] = system: S. aureus (ATCC 29213); assay: as above; type: cell-based; set-up: scale not given here
In short: as §1

[3] = zone of inhibition relative to 1 mg/ml stock solution of p-chlorobiphenylvancomycin
[4] = zone of inhibition relative to 1 mg/ml p-chlorobiphenylvancomycin

Structure (SMILES): CC1OC(OC2C(Oc3c4cc5cc3Oc3ccc(cc3Cl)C(O)C3NC(=O)C(NC(=O)C5NC(=O)C(CC(N)=O)NC(=O)C(NC(=O)C(CCC(N)=O)NC(=O)OC(C)(C)C)C(O)c5ccc(c(Cl)c5)O4)c4ccc(O)c(c4)-c4c(O)cc(O)cc4C(C(=O)O)NC3=O)OC(CO)C(O)C2O)CC(C)(NCc2ccc(-c3ccc(Cl)cc3)cc2)C1O (stereo not shown) [Compound 141]
- zone score, E. faecalis CL 4877 [1, 3]: 2
- zone score, S. aureus ATCC 29213 [2, 3]: 2

Structure (SMILES): CC1OC(OC2C(Oc3c4cc5cc3Oc3ccc(cc3Cl)C(O)C(NC(=O)C(O)C(O)C(O)C(O)CO)C(=O)NC(CC(N)=O)C(=O)NC5C(=O)NC3C(=O)NC(C(=O)NC(C(=O)O)c5cc(O)cc(O)c5-c5cc3ccc5O)C(O)c3ccc(c(Cl)c3)O4)OC(CO)C(O)C2O)CC(C)(NCc2ccc(-c3ccc(Cl)cc3)cc2)C1O (stereo not shown) [Compound 157]
- zone score, E. faecalis CL 4877 [1, 3]: 2
- zone score, S. aureus ATCC 29213 [2, 3]: 2

Structure (SMILES): CC1OC(OC2C(Oc3c4cc5cc3Oc3ccc(cc3Cl)[C@@H](O)[C@@H](NC(=O)[C@@H](CCCNC(=N)N)NC(N)=O)C(=O)N[C@@H](CC(N)=O)C(=O)N[C@H]5C(=O)NC3C(=O)N[C@H](C(=O)N[C@@H](C(=O)O)c5cc(O)cc(O)c5-c5cc3ccc5O)[C@H](O)c3ccc(c(Cl)c3)O4)OC(CO)C(O)C2O)CC(C)(NCc2ccc(-c3ccc(Cl)cc3)cc2)C1O (stereo partly shown) [Compound 187]
- zone score, E. faecalis CL 4877 [1, 3]: 2
- zone score, S. aureus ATCC 29213 [2, 3]: 2

Structure (SMILES): CC1OC(OC2C(Oc3c4cc5cc3Oc3ccc(cc3Cl)C(O)C3NC(=O)C(NC(=O)C5NC(=O)C(CC(N)=O)NC(=O)C(NC(=O)C=CC(=O)NC(N)=O)C(O)c5ccc(c(Cl)c5)O4)c4ccc(O)c(c4)-c4c(O)cc(O)cc4C(C(=O)O)NC3=O)OC(CO)C(O)C2O)CC(C)(NCc2ccc(-c3ccc(Cl)cc3)cc2)C1O (stereo not shown) [Compound 189]
- zone score, E. faecalis CL 4877 [1, 3]: 2
- zone score, S. aureus ATCC 29213 [2, 3]: 2

Structure (SMILES): CC(NC=O)C(=O)NC1C(=O)NC(CC(N)=O)C(=O)NC2C(=O)NC3C(=O)NC(C(=O)NC(C(=O)O)c4cc(O)cc(O)c4-c4cc3ccc4O)C(O)c3ccc(c(Cl)c3)Oc3cc2cc(c3OC2OC(CO)C(O)C(O)C2OC2CC(C)(NCc3ccc(-c4ccc(Cl)cc4)cc3)C(O)C(C)O2)Oc2ccc(cc2Cl)C1O (stereo not shown) [Compound 194]
- zone score, E. faecalis CL 4877 [1, 3]: 2
- zone score, S. aureus ATCC 29213 [2, 3]: 2

Structure (SMILES): CC1OC(OC2C(Oc3c4cc5cc3Oc3ccc(cc3Cl)C(O)C3NC(=O)C(NC(=O)C5NC(=O)C(CC(N)=O)NC(=O)C(NC(=O)CNC(=O)c5cccnc5)C(O)c5ccc(c(Cl)c5)O4)c4ccc(O)c(c4)-c4c(O)cc(O)cc4C(C(=O)O)NC3=O)OC(CO)C(O)C2O)CC(C)(NCc2ccc(-c3ccc(Cl)cc3)cc2)C1O (stereo not shown) [Compound 197]
- zone score, E. faecalis CL 4877 [1, 3]: 2
- zone score, S. aureus ATCC 29213 [2, 3]: 2

Structure (SMILES): CC1OC(OC2C(Oc3c4cc5cc3Oc3ccc(cc3Cl)C(O)C3NC(=O)C(NC(=O)C5NC(=O)C(CC(N)=O)NC(=O)C(NC(=O)C(=O)NNC(=N)N)C(O)c5ccc(c(Cl)c5)O4)c4ccc(O)c(c4)-c4c(O)cc(O)cc4C(C(=O)O)NC3=O)OC(CO)C(O)C2O)CC(C)(NCc2ccc(-c3ccc(Cl)cc3)cc2)C1O (stereo not shown) [Compound 199]
- zone score, E. faecalis CL 4877 [1, 3]: 2
- zone score, S. aureus ATCC 29213 [2, 3]: 2

Structure (SMILES): CC1OC(OC2C(Oc3c4cc5cc3Oc3ccc(cc3Cl)C(O)C3NC(=O)C(NC(=O)C5NC(=O)C(CC(N)=O)NC(=O)C(NC(=O)C(N)=O)C(O)c5ccc(c(Cl)c5)O4)c4ccc(O)c(c4)-c4c(O)cc(O)cc4C(C(=O)O)NC3=O)OC(CO)C(O)C2O)CC(C)(NCc2ccc(-c3ccc(Cl)cc3)cc2)C1O (stereo not shown) [Compound 200]
- zone score, E. faecalis CL 4877 [1, 3]: 2
- zone score, S. aureus ATCC 29213 [2, 3]: 2

Structure (SMILES): CC1OC(OC2C(Oc3c4cc5cc3Oc3ccc(cc3Cl)C(O)C3NC(=O)C(NC(=O)C5NC(=O)C(CC(N)=O)NC(=O)C(NC(=O)C5=CC(O)C(O)C(O)C5)C(O)c5ccc(c(Cl)c5)O4)c4ccc(O)c(c4)-c4c(O)cc(O)cc4C(C(=O)O)NC3=O)OC(CO)C(O)C2O)CC(C)(NCc2ccc(-c3ccc(Cl)cc3)cc2)C1O (stereo not shown) [Compound 201]
- zone score, E. faecalis CL 4877 [1, 3]: 2
- zone score, S. aureus ATCC 29213 [2, 3]: 2

Structure (SMILES): CC1OC(OC2C(Oc3c4cc5cc3Oc3ccc(cc3Cl)C(O)C3NC(=O)C(NC(=O)C5NC(=O)C(CC(N)=O)NC(=O)C(NC(=O)CCC=O)C(O)c5ccc(c(Cl)c5)O4)c4ccc(O)c(c4)-c4c(O)cc(O)cc4C(C(=O)O)NC3=O)OC(CO)C(O)C2O)CC(C)(NCc2ccc(-c3ccc(Cl)cc3)cc2)C1O (stereo not shown) [Compound 204]
- zone score, E. faecalis CL 4877 [1, 4]: 2
- zone score, S. aureus ATCC 29213 [2, 4]: 2

Structure (SMILES): CC1OC(OC2C(Oc3c4cc5cc3Oc3ccc(cc3Cl)C(O)C3NC(=O)C(NC(=O)C5NC(=O)C(CC(N)=O)NC(=O)C(NC(=O)CS(=O)(=O)O)C(O)c5ccc(c(Cl)c5)O4)c4ccc(O)c(c4)-c4c(O)cc(O)cc4C(C(=O)O)NC3=O)OC(CO)C(O)C2O)CC(C)(NCc2ccc(-c3ccc(Cl)cc3)cc2)C1O (stereo not shown) [Compound 205]
- zone score, E. faecalis CL 4877 [1, 4]: 2
- zone score, S. aureus ATCC 29213 [2, 4]: 2

Structure (SMILES): CC1OC(OC2C(Oc3c4cc5cc3Oc3ccc(cc3Cl)C(O)C3NC(=O)C(NC(=O)C5NC(=O)C(CC(N)=O)NC(=O)C(NC(=O)c5c[nH]c(=O)[nH]c5=O)C(O)c5ccc(c(Cl)c5)O4)c4ccc(O)c(c4)-c4c(O)cc(O)cc4C(C(=O)O)NC3=O)OC(CO)C(O)C2O)CC(C)(NCc2ccc(-c3ccc(Cl)cc3)cc2)C1O (stereo not shown) [Compound 208]
- zone score, E. faecalis CL 4877 [1, 4]: 2
- zone score, S. aureus ATCC 29213 [2, 4]: 2

Structure (SMILES): CC1OC(OC2C(Oc3c4cc5cc3Oc3ccc(cc3Cl)C(O)C3NC(=O)C(NC(=O)C5NC(=O)C(CC(N)=O)NC(=O)C(NC(=O)CNC(=O)CNC(=O)CNC(=O)CNC(=O)OCc5ccccc5)C(O)c5ccc(c(Cl)c5)O4)c4ccc(O)c(c4)-c4c(O)cc(O)cc4C(C(=O)O)NC3=O)OC(CO)C(O)C2O)CC(C)(NCc2ccc(-c3ccc(Cl)cc3)cc2)C1O (stereo not shown) [Compound 214]
- zone score, E. faecalis CL 4877 [1, 4]: 2
- zone score, S. aureus ATCC 29213 [2, 4]: 2

Structure (SMILES): CC1OC(OC2C(Oc3c4cc5cc3Oc3ccc(cc3Cl)C(O)C3NC(=O)C(NC(=O)C5NC(=O)C(CC(N)=O)NC(=O)C(NC(=O)CNC(=O)CNC(=O)CNC(=O)OCc5ccccc5)C(O)c5ccc(c(Cl)c5)O4)c4ccc(O)c(c4)-c4c(O)cc(O)cc4C(C(=O)O)NC3=O)OC(CO)C(O)C2O)CC(C)(NCc2ccc(-c3ccc(Cl)cc3)cc2)C1O (stereo not shown) [Compound 215]
- zone score, E. faecalis CL 4877 [1, 4]: 2
- zone score, S. aureus ATCC 29213 [2, 4]: 2

Structure (SMILES): CC=C(N)C(=O)NC1C(=O)NC(CC(N)=O)C(=O)NC2C(=O)NC3C(=O)NC(C(=O)NC(C(=O)O)c4cc(O)cc(O)c4-c4cc3ccc4O)C(O)c3ccc(c(Cl)c3)Oc3cc2cc(c3OC2OC(CO)C(O)C(O)C2OC2CC(C)(NCc3ccc(-c4ccc(Cl)cc4)cc3)C(O)C(C)O2)Oc2ccc(cc2Cl)C1O (stereo not shown) [Compound 219]
- zone score, E. faecalis CL 4877 [1, 4]: 2
- zone score, S. aureus ATCC 29213 [2, 4]: 2

Structure (SMILES): CC1OC(OC2C(Oc3c4cc5cc3Oc3ccc(cc3Cl)C(O)C3NC(=O)C(NC(=O)C5NC(=O)C(CC(N)=O)NC(=O)C(NC(=O)CCNC(N)=O)C(O)c5ccc(c(Cl)c5)O4)c4ccc(O)c(c4)-c4c(O)cc(O)cc4C(C(=O)O)NC3=O)OC(CO)C(O)C2O)CC(C)(NCc2ccc(-c3ccc(Cl)cc3)cc2)C1O (stereo not shown) [Compound 221]
- zone score, E. faecalis CL 4877 [1, 4]: 2
- zone score, S. aureus ATCC 29213 [2, 4]: 2

Structure (SMILES): CC1OC(OC2C(Oc3c4cc5cc3Oc3ccc(cc3Cl)C(O)C3NC(=O)C(NC(=O)C5NC(=O)C(CC(N)=O)NC(=O)C(NC(=O)CON)C(O)c5ccc(c(Cl)c5)O4)c4ccc(O)c(c4)-c4c(O)cc(O)cc4C(C(=O)O)NC3=O)OC(CO)C(O)C2O)CC(C)(NCc2ccc(-c3ccc(Cl)cc3)cc2)C1O (stereo not shown) [Compound 222]
- zone score, E. faecalis CL 4877 [1, 4]: 2
- zone score, S. aureus ATCC 29213 [2, 4]: 2

Structure (SMILES): CC1OC(OC2C(Oc3c4cc5cc3Oc3ccc(cc3Cl)C(O)C3NC(=O)C(NC(=O)C5NC(=O)C(CC(N)=O)NC(=O)C(NC(=O)CNC(=O)CNC(=O)OC(C)(C)C)C(O)c5ccc(c(Cl)c5)O4)c4ccc(O)c(c4)-c4c(O)cc(O)cc4C(C(=O)O)NC3=O)OC(CO)C(O)C2O)CC(C)(NCc2ccc(-c3ccc(Cl)cc3)cc2)C1O (stereo not shown) [Compound 223]
- zone score, E. faecalis CL 4877 [1, 4]: 2
- zone score, S. aureus ATCC 29213 [2, 4]: 2

Structure (SMILES): CC1OC(OC2C(Oc3c4cc5cc3Oc3ccc(cc3Cl)C(O)C3NC(=O)C(NC(=O)C5NC(=O)C(CC(N)=O)NC(=O)C(NC(=O)c5cccnc5Sc5ccc(Cl)cc5)C(O)c5ccc(c(Cl)c5)O4)c4ccc(O)c(c4)-c4c(O)cc(O)cc4C(C(=O)O)NC3=O)OC(CO)C(O)C2O)CC(C)(NCc2ccc(-c3ccc(Cl)cc3)cc2)C1O (stereo not shown) [Compound 230]
- zone score, E. faecalis CL 4877 [1, 4]: 2
- zone score, S. aureus ATCC 29213 [2, 4]: 2

Structure (SMILES): C=C(C(=O)NC1C(=O)NC(CC(N)=O)C(=O)NC2C(=O)NC3C(=O)NC(C(=O)NC(C(=O)O)c4cc(O)cc(O)c4-c4cc3ccc4O)C(O)c3ccc(c(Cl)c3)Oc3cc2cc(c3OC2OC(CO)C(O)C(O)C2OC2CC(C)(NCc3ccc(-c4ccc(Cl)cc4)cc3)C(O)C(C)O2)Oc2ccc(cc2Cl)C1O)C(F)(F)F (stereo not shown) [Compound 231]
- zone score, E. faecalis CL 4877 [1, 4]: 2
- zone score, S. aureus ATCC 29213 [2, 4]: 2

Structure (SMILES): CC1OC(OC2C(Oc3c4cc5cc3Oc3ccc(cc3Cl)C(O)C(NC(=O)C(C)(CO)CO)C(=O)NC(CC(N)=O)C(=O)NC5C(=O)NC3C(=O)NC(C(=O)NC(C(=O)O)c5cc(O)cc(O)c5-c5cc3ccc5O)C(O)c3ccc(c(Cl)c3)O4)OC(CO)C(O)C2O)CC(C)(NCc2ccc(-c3ccc(Cl)cc3)cc2)C1O (stereo not shown) [Compound 232]
- zone score, E. faecalis CL 4877 [1, 4]: 2
- zone score, S. aureus ATCC 29213 [2, 4]: 2

Structure (SMILES): CC1OC(OC2C(Oc3c4cc5cc3Oc3ccc(cc3Cl)C(O)C3NC(=O)C(NC(=O)C5NC(=O)C(CC(N)=O)NC(=O)C(NC(=O)COc5cc(Cl)c(Cl)cc5Cl)C(O)c5ccc(c(Cl)c5)O4)c4ccc(O)c(c4)-c4c(O)cc(O)cc4C(C(=O)O)NC3=O)OC(CO)C(O)C2O)CC(C)(NCc2ccc(-c3ccc(Cl)cc3)cc2)C1O (stereo not shown) [Compound 233]
- zone score, E. faecalis CL 4877 [1, 4]: 2
- zone score, S. aureus ATCC 29213 [2, 4]: 2

Structure (SMILES): COc1ccc(C(=O)NC2C(=O)NC(CC(N)=O)C(=O)NC3C(=O)NC4C(=O)NC(C(=O)NC(C(=O)O)c5cc(O)cc(O)c5-c5cc4ccc5O)C(O)c4ccc(c(Cl)c4)Oc4cc3cc(c4OC3OC(CO)C(O)C(O)C3OC3CC(C)(NCc4ccc(-c5ccc(Cl)cc5)cc4)C(O)C(C)O3)Oc3ccc(cc3Cl)C2O)c(OC)c1 (stereo not shown) [Compound 236]
- zone score, E. faecalis CL 4877 [1, 4]: 2
- zone score, S. aureus ATCC 29213 [2, 4]: 2
